Experimental findings from patent US8022069B2, “Substituted piperidines as renin inhibitors” (Novartis AG, priority 2008, dated 2011) are described below.

This experiment addresses T1, renin (Homo sapiens, UniProt P00797).
T1 construct: This test measures the formation of angiotensin I in human plasma; from tissue; host or cells: human plasma
T1 sequence (P00797 67-406): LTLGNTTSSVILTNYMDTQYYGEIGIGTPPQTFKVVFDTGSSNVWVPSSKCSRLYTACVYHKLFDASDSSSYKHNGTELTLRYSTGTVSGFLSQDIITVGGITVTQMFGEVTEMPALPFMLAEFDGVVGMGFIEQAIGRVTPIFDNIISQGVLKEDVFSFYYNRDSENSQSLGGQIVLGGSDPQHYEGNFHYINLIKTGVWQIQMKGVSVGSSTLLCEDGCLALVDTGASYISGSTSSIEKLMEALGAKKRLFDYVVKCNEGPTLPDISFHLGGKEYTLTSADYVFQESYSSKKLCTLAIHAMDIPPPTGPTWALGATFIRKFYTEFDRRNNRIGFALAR
As to the kind of experiment: formation of angiotensin I in human plasma, radioimmunoassay (Nussberger et al.). It is filed as biochemical. The settings on record: values in the range of about, read-out: IC50, inhibition of the formation of angiotensin I. The method, then: The effect of renin inhibitors is detected inter alia experimentally by means of in vitro tests where the reduction in the formation of angiotensin I is measured in various systems (human plasma, purified human renin together with synthetic or natural renin substrate). The following in vitro test of Nussberger et al. (1987) J. Cardiovascular Pharmacol., Vol. 9, pp. 39-44, is used inter alia. This test measures the formation of angiotensin I in human plasma. The amount of angiotensin I formed is determined in a subsequent radioimmunoassay. The effect of inhibitors on the formation of angiotensin I is tested in this system by adding various concentrations of these substances. The IC50 is defined as the concentration of the particular inhibitor which reduces the formation of angiotensin I by 50%. The compounds of the present invention show inhibitory effects in the in vitro systems at minimal concentrations of about 10^−6 mol/l to about 10^−10 mol/l.

Broadly, the IC50 is the point on the concentration scale where inhibition reaches its midpoint. Take `CCO[C@H](C)COCc1ccc([C@H]2C[C@@H](CC(C)(C)C(=O)NC)NC[C@@H]2OCc2ccc3c(c2)N(CCCOC)CCO3)cc1` [Example 5, 3-{(2S,4R,5R)-4-[4-((R)-2-Ethoxy-propoxymethyl)-phenyl]-5-[4-(3-methoxy-propyl) -3,4-dihydro-2H-benzo[1,4]oxazin-6-ylmethoxy]-piperidin-2-yl}-2,2,N-trimethyl-propionamide]: the half-maximal inhibitory concentration (IC50) lay in the range of 0.1 to 10 nM.

On to `CCO[C@H](C)COCc1ccc([C@H]2C[C@H](CCn3cnnc3)NC[C@@H]2OCc2ccc3c(c2)N(CCCOC)CCO3)cc1` [Example 9, 6-[(3R,4R,6R)-4-[4-((R)-2-Ethoxy-propoxymethyl)-phenyl]-6-(2-[1,2,4]triazol-4-yl-ethyl) -piperidin-3-yloxymethyl]-4-(3-methoxy-propyl)-3,4-dihydro-2H-benzo[1,4]oxazine], for which the IC50 was 0.1 to 10 nM.
